Experimental data taken from the supplement of paper PMC10307832.

Assays:
Test in all cases: relative viability (nuclei count vs DMSO), 5 days (fraction); higher = more cells survive
[1] = compound: CCC1=CN=CN=C1N2CCN(CC2)CC3=NC4=C(N3)C=C(C=C4)C(F)(F)F + Nc1nc2[nH]cc(CCc3ccc(C(=O)N[C@@H](CCC(=O)O)C(=O)O)cc3)c2c(=O)[nH]1 [Pemetrexed] (partner 0.2 µM)
In short: (§1)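 Medians of duplicate plates are given as relative viability. That measure is the nuclei count in treated wells divided by the count in vehicle wells. Counts were taken on 4× images of lung cancer cell lines in 1536-well plates, 5 days after pin-tool dosing the day after seeding with one drug alone or a fixed anchor-drug dose plus five library-drug doses (not always all listed) in √10 steps.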

[2] = compound: CCn1c(-c2nonc2N)nc2cnc(Oc3cccc(NC(=O)c4ccc(OCCN5CCOCC5)cc4)c3)cc21 + CCNC(=O)c1noc(-c2cc(C(C)C)c(O)cc2O)c1-c1ccc(CN2CCOCC2)cc1 [Luminespib] (partner 0.01 µM)
In short: as §1

[3] = compound: CCn1c(-c2nonc2N)nc2cnc(Oc3cccc(NC(=O)c4ccc(OCCN5CCOCC5)cc4)c3)cc21 + NC(=O)Nc1cc(-c2cccc(F)c2)sc1C(=O)N[C@H]1CCCNC1 [AZD7762] (partner 0.2 µM)
In short: as §1

[4] = compound: CCC1=CN=CN=C1N2CCN(CC2)CC3=NC4=C(N3)C=C(C=C4)C(F)(F)F + CC(=O)Nc1cccc(-n2c(=O)n(C3CC3)c(=O)c3c(Nc4ccc(I)cc4F)n(C)c(=O)c(C)c32)c1 [Trametinib] (partner 0.02 µM)
In short: as §1

| Cell Line | relative viability ([1]; first compound 0.04 µM) | relative viability ([1]; first compound 0.1265 µM) | relative viability ([1]; first compound 0.4 µM) | relative viability ([1]; first compound 1.265 µM) | relative viability ([1]; first compound 4 µM) | relative viability ([2]; first compound 0.04 µM) | relative viability ([2]; first compound 0.1265 µM) | relative viability ([2]; first compound 0.4 µM) | relative viability ([2]; first compound 1.265 µM) | relative viability ([2]; first compound 4 µM) | relative viability ([3]; first compound 0.04 µM) | relative viability ([3]; first compound 0.1265 µM) | relative viability ([3]; first compound 0.4 µM) | relative viability ([3]; first compound 1.265 µM) | relative viability ([3]; first compound 4 µM) | relative viability ([4]; first compound 0.04 µM) | relative viability ([4]; first compound 0.1265 µM) | relative viability ([4]; first compound 0.4 µM) | relative viability ([4]; first compound 1.265 µM) | relative viability ([4]; first compound 4 µM) |
| --- | --- | --- | --- | --- | --- | --- | --- | --- | --- | --- | --- | --- | --- | --- | --- | --- | --- | --- | --- | --- |
| NCI-H322M | 0.62 | 0.606 | 0.603 | 0.539 | 0.629 | 1.25 | 1.16 | 0.931 | 0.434 | 0.587 | 0.587 | 0.556 | 0.561 | 0.496 | 0.445 | 0.483 | 0.611 | 0.537 | 0.458 | 0.62 |
| PC-3 [JPC-3] | – | 0.983 | 1.07 | 0.959 | 1.09 | 0.849 | 0.73 | 0.718 | 0.726 | 0.626 | 0.892 | 0.889 | 0.828 | 0.56 | 0.658 | – | 0.632 | 0.671 | 0.634 | 0.682 |
| EPLC-272H | 0.308 | 0.33 | 0.276 | 0.318 | 0.281 | 0.263 | 0.697 | 0.265 | 0.26 | 0.286 | 0.211 | 0.199 | 0.153 | 0.128 | 0.0806 | 0.289 | 0.26 | 0.32 | 0.284 | 0.325 |
| A-427 | 0.761 | 0.934 | 0.873 | 0.835 | 0.898 | 1.14 | 0.974 | 0.627 | 0.416 | 0.524 | 0.774 | 0.503 | 0.364 | 0.188 | 0.21 | 0.631 | 0.731 | 0.675 | 0.615 | 0.637 |
